{
  "source": "patent US20110224300A1",
  "about": "“USE OF POTASSIUM 2-(a- HYDROXYPENTYL) BENZOATE IN THE MANUFACTURE OF MEDICAMENTS FOR PREVENTING AND/OR TREATING SENILE [sequence]” (Institute of Mataria Medica, Chinese Academy of Me, priority 2008, published 2011)",
  "key": {"[1]": {"system": "corpus callosum and optic tract of 2-VO rats", "experiment": "Klüver-Barrera staining in 2-VO rats", "assay_type": "in vivo, rat", "details": "for improvement of pathological damage of the corpus callosum, K-B staining: 21 days, rank among doses", "method": "Four rats in each group were anesthetized with sodium pentobarbital (100 mg/kg, intraperitoneal injection), and perfused transcardially with cold saline, followed by 300 ml of 4% paraformaldehyde in 0.01 M phosphate buffer (pH 7.4). After these procedures, the brains were removed and stored in the 0.01 M phosphate buffer (pH 7.4) with 4% paraformaldehyde and 30% sucrose at 4° C. until fully equilibrated. Then they were postfixed at 4° C., dehydrated and embedded in paraffin blocks. Coronal sections of 8 μm were stained with hematoxylin-eosin and Klüver-Barrera.\nKB staining could reflect the morphological changes of neuronal myelin sheath, and the morphological changes of nerve fibers."}, "SOD": {"system": "SOD", "experiment": "SOD activity of brain tissues from SAMP8 mice", "assay_type": "in vivo", "details": "35 days; for SOD activity in the hippocampus: untreated SAMP8 279.4±65.7, P<0.05", "method": "(§1) The biochemical assays were conducted later (in 24 h) after behavioral testing. Eight rats in each group were anesthetized with ether and sacrificed. The brains were quickly removed and cleaned with ice-cold saline. Then the parietal cortex and hippocampus were isolated. For biochemical analysis, the tissues were weighed and homogenized in ice-cold saline with the proportion of 1:9 (w/v). Homogenization (IKA, Germany) was carried out for 2 min in an ice bath. After the homogenates were centrifuged at 2,000×g for 10 min at 4° C. (Sigma, Germany), the supernatant was used for analytical procedures. The levels of choline acetyltransferase (ChAT) SOD, and MDA activities were determined with commercial colorimetric assay kits (Nanjing Jiancheng Bioengineering Institute, China). The content of protein in the supernatant was determined by Bradford method using BSA as standard.\n(§2) SAMP8 were divided into three experimental groups randomly: one vehicle control group, and two dl-PHPB-treated groups (50, and 160 mg/kg). Drugs and vehicle were administered orally to SAMP8 mice for 35 days (one time/each day). The spatial learning and memory abilities of SAMP8 mice were detected by Morris water maze and DTT-2 jumping apparatus in 31-35 days. The testing was commenced at 40 min after drugs treated. The biochemical and pathology assays conducted later (in 24 h) after behavioral testing.\n(§3) The methods as described previously."}, "MDA [2]": {"system": "MDA", "experiment": "MDA level of brain tissues from permanent 2-VO rats", "assay_type": "in vivo, rat", "details": "for MDA level in cortex: 21 days", "method": "In 10 days after onset of 2-VO, drugs and vehicle were administered orally to rats for 21 days (one time/each day). The spatial learning and memory capability of rats were detected by Morris water maze in the 25-30 days after operation. The Morris water test was commenced at 40 min after drugs treated. The biochemical and pathology assays were conducted later (in 24 h) after behavioral tests.\nas §1"}, "MDA [3]": {"system": "MDA", "experiment": "MDA level of brain tissues from Aβ(25-35)-induced dementia rats", "assay_type": "in vivo, Male Wistar rats", "details": "Aβ(25-35) rats, 2 weeks, vehicle 5.43±0.55", "method": "as §1\n(§4) Rats were divided into four experimental groups randomly (10 rats/each group): one sham-operated group, one vehicle control group, and two dl-PHPB-treated groups (39, and 129 mg/kg). At 1 days after operation, drugs and vehicle were administered orally to rats for 14 days (one time/each day). The spatial learning and memory abilities of rats were detected by Morris water maze in the 9-12 days after operation. The testing of Morris water was commenced at 40 min after drugs treated. […]"}, "ChAT [4]": {"system": "ChAT", "experiment": "ChAT activity of brain tissues from SAMP8 mice", "assay_type": "in vivo", "method": "as §1\nas §2, with “testing. […]” for “testing.”"}, "SAMP8 mice": {"system": "SAMP8 mice", "experiment": "Water maze test (blind sides) in SAMP8 mice", "assay_type": "in vivo", "method": "as §2\nThe water maze consisted of square black opaque plastic box (80 cm×50 cm×20 cm), of which four blind-side and a terminal stage. When a black plastic sheet (15 cm×20 cm) was placed in different locations, there were different the starting points and different number of blind side. The water maze filled with water at 25±1° C. to a depth 12 cm. Mice can be placed in different starting point, making experience with different number of blind side to the end. The number of errors into the blind side and the time to reach the end platform (escape latency) was recorded.\nEach mouse was permitted to stay there for 5 s and place in the pool, allowed 3 min to find the end platform. The escape latency (time to reach the platform) was used to assess acquisition of the water maze task. Sessions was repeated for 4 consecutive days."}, "BDNF": {"system": "BDNF", "experiment": "BDNF immunohistochemistry in 2-VO rats", "assay_type": "in vivo, rat", "details": "for BDNF expression in hippocampus CA1, CA2, CA3 area: 21 days", "method": "The method for tissue fixation was described above. Serial coronal sections (40 μm) of the brains were cut through the dorsal hippocampus on a freezing microtome and collected in 6-well plates containing 0.01 M PBS. The detection of GFAP and BDNF immunoreactivity was performed using a conventional avidin-biotin-immunoperoxidease technique.\nFor quantitative analysis, one from every five samples in a continuous series of hippocampal or cortical tissue sections was taken, and was processed immunohistochemically. Thus, three slides were taken from each rat, and were read under an objective (×1.6) microscope. The total area of positively stained neurons was counted with Image-pro Plus 5.0 software."}, "ChAT [5]": {"system": "ChAT", "experiment": "ChAT activity of brain tissues from Aβ(25-35)-induced dementia rats", "assay_type": "in vivo, Male Wistar rats", "details": "Aβ(25-35) rats, 2 weeks", "method": "as §1, §4"}, "Mitochondrial ATPase": {"system": "Mitochondrial ATPase", "experiment": "Cortex mitochondrial ATPase activity in SAMP8 mice", "assay_type": "in vivo", "details": "160 mg/kg oral, 35 days, vehicle 8.58±0.21, significant", "method": "as §1\nas §2, with “testing. […]” for “testing.”"}, "MDA [6]": {"system": "MDA", "experiment": "MDA level of brain tissues from SAMP8 mice", "assay_type": "in vivo", "details": "35 days; for MDA level in the hippocampus / decrease of hippocampus MDA level compared with SAMP8: without statistical significance", "method": "as §1, §2, §3"}},
  "data": [
    {"smiles": "CCCCC(O)c1ccccc1C(=O)[O-].[K+]", "note": "(racemic) [dl-PHPB, Potassium 2-(1-Hydroxypentyl)-benzoate]", "values": [
      {"measurement": "improvement of pathological damage of the corpus callosum, K-B staining", "setting": "[1]; dl-PHPB 13 mg/kg", "result": "the weakest"},
      {"measurement": "pathological changes of the optic tract, K-B staining", "setting": "[1]; dl-PHPB 39 mg/kg", "result": "strong role"},
      {"measurement": "improvement of pathological damage of the corpus callosum, K-B staining", "setting": "[1]; dl-PHPB 39 mg/kg", "result": "strongest"},
      {"measurement": "pathological changes of the optic tract, K-B staining", "setting": "[1]; dose not specified", "result": "a certain improvement"},
      {"measurement": "SOD activity in the hippocampus", "setting": "SOD; 50 mg/kg oral", "result": "156.2±7.8", "unit": "U/mg protein"},
      {"measurement": "SOD activity in the hippocampus", "setting": "SOD; 160 mg/kg oral", "result": "158.7±11.4", "unit": "U/mg protein"},
      {"measurement": "SOD activity in the cortex", "setting": "SOD; cortex", "result": "did not significantly improve SOD activity"},
      {"measurement": "MDA level in cortex", "setting": "MDA [2]; dl-PHPB 13 mg/kg", "result": "decreased MDA level"},
      {"measurement": "MDA level in cortex", "setting": "MDA [2]; dl-PHPB 39 mg/kg", "result": "decreased MDA level"},
      {"measurement": "MDA level in cortex", "setting": "MDA [2]; dl-PHPB 129 mg/kg", "result": "decreased MDA level"},
      {"measurement": "MDA level in hippocampus", "setting": "MDA [2]; hippocampus, doses not given", "result": "no significant effects"},
      {"measurement": "cortex MDA level", "setting": "MDA [3]; 39 mg/kg oral, P<0.05", "result": "3.62±0.21", "unit": "nmol/mg protein"},
      {"measurement": "cortex MDA level", "setting": "MDA [3]; 129 mg/kg oral, P<0.01", "result": "3.28±0.25", "unit": "nmol/mg protein"},
      {"measurement": "ChAT activity in the hippocampus", "setting": "ChAT [4]; 35 days, dose-dependent, P<0.05", "result": "significantly increased ChAT activity"},
      {"measurement": "ChAT activity in the cortex", "setting": "ChAT [4]; cortex, data not shown", "result": "did not significantly improve ChAT activity"},
      {"measurement": "number of errors into the blind-side", "setting": "SAMP8 mice; 50 mg/kg oral, fifth test, vehicle 6.1±1.1, P<0.05", "result": "3.1±0.9"},
      {"measurement": "escape latency time", "setting": "SAMP8 mice; 50 mg/kg, last test, P<0.01 vs vehicle", "result": "significantly shorten the escape latency time"},
      {"measurement": "number of errors into the blind-side", "setting": "SAMP8 mice; 160 mg/kg oral, fifth test, vehicle 6.1±1.1, P<0.05", "result": "2.7±0.3"},
      {"measurement": "escape latency time", "setting": "SAMP8 mice; 160 mg/kg, fourth training, P<0.05", "result": "significantly shortened the escape latency time"},
      {"measurement": "escape latency time", "setting": "SAMP8 mice; 160 mg/kg, last test, P<0.01 vs vehicle", "result": "significantly shorten the escape latency time"},
      {"measurement": "escape latency time", "setting": "SAMP8 mice; first and second trainings, each group", "result": "no significant difference"},
      {"measurement": "number of errors into the blind-side", "setting": "SAMP8 mice; first three trainings, vs vehicle", "result": "no significant difference"},
      {"measurement": "number of errors into the blind-side", "setting": "SAMP8 mice; fourth training, vs vehicle, dose not specified", "result": "significantly decreased the number of errors"},
      {"measurement": "escape latency time", "setting": "SAMP8 mice; third training", "result": "tendency of the shorter escape latency"},
      {"measurement": "BDNF expression in hippocampus CA1, CA2, CA3 area", "setting": "BDNF; dl-PHPB 39 mg/kg, P<0.05 or P<0.01", "result": "significantly increased BDNF expression"},
      {"measurement": "BDNF expression in hippocampus CA1, CA2, CA3 area", "setting": "BDNF; dl-PHPB 129 mg/kg", "result": "only a trend without statistical significance"},
      {"measurement": "expression of BDNF in the cortex (staining intensity)", "setting": "BDNF; strongest at 39 mg/kg, succeeded by 129 mg/kg and 13 mg/kg", "result": "increase the expression of BDNF"},
      {"measurement": "cortical ChAT activity", "setting": "ChAT [5]; 39 mg/kg, P<0.05", "result": "significantly increased the ChAT activity"},
      {"measurement": "cortical ChAT activity", "setting": "ChAT [5]; 129 mg/kg", "result": "strong trend"},
      {"measurement": "ATPase activity (cortex mitochondria)", "setting": "Mitochondrial ATPase", "result": "9.82±0.51", "unit": "U/mg protein"},
      {"measurement": "MDA level in the hippocampus", "setting": "MDA [6]; 50 mg/kg oral", "result": "1.23±0.05", "unit": "nmol/mg protein"},
      {"measurement": "decrease of hippocampus MDA level compared with SAMP8", "setting": "MDA [6]; 50 mg/kg oral", "result": 35.3, "unit": "%"},
      {"measurement": "MDA level in the hippocampus", "setting": "MDA [6]; 160 mg/kg oral", "result": "1.26±0.09", "unit": "nmol/mg protein"},
      {"measurement": "decrease of hippocampus MDA level compared with SAMP8", "setting": "MDA [6]; 160 mg/kg oral", "result": 33.7, "unit": "%"},
      {"measurement": "MDA level in the cortex", "setting": "MDA [6]; cortex, data not shown", "result": "did not significantly improved in MDA level"}
    ]}
  ]
}
